The numbers were not newly measured in US8697743B2, “Antioxidant camptothecin derivatives and antioxidant antineoplastic nanospheres thereof” (Cedars-Sinai Medical Center, priority 2008, dated 2014), which cites them from elsewhere.

For data set [1] the following is noted: 30 minutes after administration.

Molecules are shown by their SMILES.

As to `CC[C@@]1(O)C(=O)OCc2c1cc1n(c2=O)Cc2cc3ccccc3nc2-1` [camptothecin, (S)-4-ethyl-4-hydroxy-1H-pyrano-[3′,4′:6,7]indolizino[1,2-b]quinoline-3,14(4H,12H)-dione], the solubility in water entry is on record as “essentially insoluble in water”. The “lactone form hydrolyzed to an open ring” value in data set [1] was 50%.
